From patent publication US20240307342A1, “Treatment of the adverse cardiovascular effects of cannabinoids” (GreenStone Biosciences, Inc., priority 2022, published 2024)
Like-named read-outs stand apart in the source and are kept apart here.

Key:
hiPSC-ECs [1] = assay: oxidative stress and inflammation readouts in hiPSC-ECs; type: cell-based, human; settings: for expression of proinflammatory cytokines and chemokines / inflammation-related genes / TLR4 expression / expression of ROS-related genes NOX1 and iNOS / mRNA expression of antioxidant-related genes (SOD1, SOD2, CAT, GPX1): Δ9-THC alone; for expression of proinflammatory cytokines and chemokines / inflammation-related genes: genistein or AM6545 = reversal of the Δ9-THC-induced effect; for TLR4 expression / expression of ROS-related genes NOX1 and iNOS / mRNA expression of antioxidant-related genes (SOD1, SOD2, CAT, GPX1): genistein = with Δ9-THC
CB1 [2] = target: T1, CB1 (Homo sapiens, UniProt P21554); settings: reported as an agonist; cited from earlier work
T1 sequence (P21554 whole entry): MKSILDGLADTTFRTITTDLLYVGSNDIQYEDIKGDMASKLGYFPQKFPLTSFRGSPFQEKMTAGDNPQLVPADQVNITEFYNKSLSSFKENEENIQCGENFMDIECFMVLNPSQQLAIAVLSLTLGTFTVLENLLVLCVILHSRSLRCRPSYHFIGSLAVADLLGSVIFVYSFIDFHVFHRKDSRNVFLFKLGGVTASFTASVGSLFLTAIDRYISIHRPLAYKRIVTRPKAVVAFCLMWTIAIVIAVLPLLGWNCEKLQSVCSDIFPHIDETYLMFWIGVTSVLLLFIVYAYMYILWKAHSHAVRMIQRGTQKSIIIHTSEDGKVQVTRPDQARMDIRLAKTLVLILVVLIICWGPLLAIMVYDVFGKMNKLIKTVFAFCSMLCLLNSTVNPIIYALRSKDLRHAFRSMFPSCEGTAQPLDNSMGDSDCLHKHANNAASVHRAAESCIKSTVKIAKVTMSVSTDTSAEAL

[3] = not told; cited from earlier work
[4] = in vivo; cited from earlier work
CB1 [5] = target: T1, CB1; assay: in vitro GTPase assay; type: biochemical
ApoE^−/− mice = assay: ApoE−/− partial carotid artery ligation (PCAL) atherosclerosis model; type: in vivo, mouse; settings: for plaque area (Oil Red O), ligated carotid artery: 10 days high-fat diet, genistein = cotreatment with Δ9-THC; for CD68-positive area / F4/80-positive area, ligated carotid artery: genistein = co-treatment with Δ9-THC
human CB2 = human CB2 (Homo sapiens, UniProt P34972); settings: reported as an agonist; cited from earlier work
Sequence of human CB2 (P34972 whole entry): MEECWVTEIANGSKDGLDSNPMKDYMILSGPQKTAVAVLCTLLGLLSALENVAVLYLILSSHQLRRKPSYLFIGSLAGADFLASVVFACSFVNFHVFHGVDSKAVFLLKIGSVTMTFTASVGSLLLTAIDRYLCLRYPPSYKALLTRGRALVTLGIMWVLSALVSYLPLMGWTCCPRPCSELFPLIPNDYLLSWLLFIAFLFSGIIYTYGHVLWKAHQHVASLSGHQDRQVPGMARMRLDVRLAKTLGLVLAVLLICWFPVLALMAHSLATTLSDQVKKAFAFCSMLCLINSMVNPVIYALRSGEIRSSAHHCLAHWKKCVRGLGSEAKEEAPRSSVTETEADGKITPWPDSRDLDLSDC

C57BL/6J mice [6] = assay: 30-day C57BL/6J mouse model of Δ9-THC-induced endothelial dysfunction, oxidative stress and inflammation; settings: for endothelial function (wire myograph, thoracic aorta): 30 days, genistein = Δ9-THC plus genistein; for circulating levels of glutathione / plasma interleukins IL-6, IL-3 and IL-10: Δ9-THC alone; for circulating levels of glutathione: genistein = co-treatment; for plasma interleukins IL-6, IL-3 and IL-10: genistein = cotreatment
Description: Seven-week-old male C57BL/6J mice were obtained from Jackson Laboratory (Bar Harbor, ME, USA). […] Organs were collected, weighed, and fixed with 4% paraformaldehyde (PFA). The thoracic aortas (TAs) were surgically dissected out and cleaned from the surrounding connective tissue for all groups. The TAs were transferred to ice-cold Krebs'-Henseleit solution and cut into segments of 2 mm. The artery segments were mounted in wire-myograph chambers for isometric tension recordings (DanishMyo Technology [DMT]).The chambers contained Krebs'-Henseleit solution. All chambers were aerated with 95% 02/5% CO2, and the temperature was kept constant at 37° C. to mimic physiological conditions. After a manual stabilization and normalization procedure, the PowerLab4/25-Chart7 acquisition systems (AD Instruments Ltd) was used to record force and convert it into tension. The TA segments were pre-constricted using either […] 5HT serotonin (5HT) or U46619. A cumulative application of acetylcholine ([…]) was performed, and the induced vascular dilatations were measured. Subsequently, concentration-response relationship curves were established for each group of 3 mice. Time-matched dimethylsulfoxide (DMSO) application was performed in a separate chamber as the control for all experiments.

[7] = Yang et al. 2012; cited from earlier work
[8] = tested on: LDL receptor knock-out mice (B6.129S7-Ldlr^tm1Her/J); assay: atherosclerosis in LDL receptor knock-out mice on high-fat diet; type: in vivo, mouse; settings: for serum lipid profiles or blood pressure: 12 weeks high-fat diet, genistein = cotreatment with Δ9-THC; for CD68-positive area in the aortic root (macrophage recruitment) / plaque size (Oil Red O; aortic root cross-sections and en face thoracic aorta): 12 weeks, genistein = co-treatment with Δ9-THC
Description: After 12 weeks, the mice were euthanized, and the atherosclerotic lesion area was examined by cross-sections of the aortic root and an en face analysis of the thoracic aorta. […] Macrophage recruitment in the aortic root was analyzed using aortic plaque stained with an anti-CD68 antibody.

Human subjects = assay: human study in subjects ingesting medicinal cannabinoids; type: in vivo; settings: 1 or 5 mg/Kg/day versus placebo
CB1 [9] = target: T1, CB1; assay: CB1 radioligand binding assay
hiPSC-ECs [10] = assay: monocyte adhesion to hiPSC-ECs; type: cell-based, human; settings: Δ9-THC alone; genistein = with Δ9-THC
[11] = target: G protein-coupled estrogen receptor (Homo sapiens, UniProt Q99527); settings: agonist; cited from earlier work
Sequence of G protein-coupled estrogen receptor (Q99527 whole entry): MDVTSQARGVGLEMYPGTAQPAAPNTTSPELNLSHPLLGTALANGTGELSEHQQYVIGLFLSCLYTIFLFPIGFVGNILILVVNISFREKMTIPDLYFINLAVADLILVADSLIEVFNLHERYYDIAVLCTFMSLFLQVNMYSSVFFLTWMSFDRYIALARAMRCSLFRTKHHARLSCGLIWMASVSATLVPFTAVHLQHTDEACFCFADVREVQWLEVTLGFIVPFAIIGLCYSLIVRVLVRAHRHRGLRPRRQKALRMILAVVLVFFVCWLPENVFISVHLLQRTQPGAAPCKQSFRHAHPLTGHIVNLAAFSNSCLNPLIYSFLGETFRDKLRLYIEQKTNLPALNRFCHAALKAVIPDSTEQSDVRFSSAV

C57BL/6J mice [12] = assay: neurobehavioral testing (Billy Martin tetrad); type: in vivo, mouse
hiPSC-ECs [13] = assay: cytotoxicity in hiPSC-ECs
human endothelial cells = assay: inflammation and antioxidant gene expression in human endothelial cells
[14] = tested on: human cardiac fibroblasts-ventricular (NHCF-V); assay: cytotoxicity in cardiac fibroblasts
[15] = tested on: human endothelial cells (HUVECs and HCAECs); assay: cytotoxicity in human endothelial cells
[16] = Δ9-THC 20 mg/kg i.p., 60 min post-dosing

Compound | expression of proinflammatory cytokines and chemokines / inflammation-related genes (hiPSC-ECs [1]) | TLR4 expression (hiPSC-ECs [1]) | expression of ROS-related genes NOX1 and iNOS (hiPSC-ECs [1]) | mRNA expression of antioxidant-related genes (SOD1, SOD2, CAT, GPX1) (hiPSC-ECs [1]) | plaque area (Oil Red O), ligated carotid artery (ApoE^−/− mice) | CD68-positive area (ApoE^−/− mice) | F4/80-positive area, ligated carotid artery (ApoE^−/− mice) | endothelial function (wire myograph, thoracic aorta) (C57BL/6J mice [6]) | mRNA expressions of inflammation induced by Δ9-THC in mouse thoracic artery tissues (C57BL/6J mice [6]; with Δ9-THC) | circulating levels of glutathione (C57BL/6J mice [6]) | plasma interleukins IL-6, IL-3 and IL-10 (C57BL/6J mice [6]) | serum lipid profiles or blood pressure [8] | CD68-positive area in the aortic root (macrophage recruitment) [8] | plaque size (Oil Red O; aortic root cross-sections and en face thoracic aorta) [8] | monocyte adhesion to hiPSC-ECs (hiPSC-ECs [10]) | also measured
Cc1c(C(=O)NN2CCS(=O)(=O)CC2)nn(-c2ccc(Cl)cc2Cl)c1-c1ccc(C#CCCC#N)cc1 [AM6545] | reversed | – | – | – | – | – | – | – | – | – | – | – | – | – | – | –
O=c1c(-c2ccc(O)cc2)coc2cc(O)cc(O)c12 [genistein, 5,7-dihydroxy-3-(4-hydroxyphenyl)-4H-1-benzopyran-4-one] | reversed | disrupted | salutatory effect | ameliorated | ameliorated plaque size | reduced | decreased | mitigated | ameliorated | ameliorated | significantly reduced | Neither Δ^9-THC nor cotreatment with Δ^9-THC and genistein affected | rescued | ameliorated plaque size | reversed | IC50 (CB1 [2]): 0.15 µM; NF-κB phosphorylation (hiPSC-ECs [1]; genistein with Δ9-THC): attenuated; cell wall permeability [3]: high cell wall permeability; bioavailability [4]: low bioavailability; mode of action against CB1 (CB1 [5]): neutral antagonist; IC50 (human CB2): > 50 µM; Ki (human CB2): > 50 µM; NF-κB phosphorylation and SOD expression in mouse serum (C57BL/6J mice [6]; with Δ9-THC): attenuated; oxidative stress-related gene expression (C57BL/6J mice [6]; with Δ9-THC): rescued; blood-brain barrier (BBB) penetration [7]: poor blood-brain barrier (BBB) penetration; incidence of adverse cardiovascular effects of cannabinoid ingestion (Human subjects): dose-related lower incidence; IC50 (CB1 [9]): 0.15 µM; affinity [11]: 133 nM; Δ9-THC neurobehavioral effects (C57BL/6J mice [12]; genistein 50 mg/kg p.o. in co-treatment with Δ9-THC 20 mg/kg i.p.): could not attenuate; tetrad effects (C57BL/6J mice [12]; genistein alone, 50 mg/kg p.o.): did not affect tetrad effects
Cc1c(C(=O)NN2CCCCC2)nn(-c2ccc(Cl)cc2Cl)c1-c1ccc(Cl)cc1 [rimonabant] | – | – | – | – | – | – | – | – | ameliorated | – | – | – | – | – | – | –
CCCCCc1cc(O)c2c(c1)OC(C)(C)[C@@H]1CCC(C)=C[C@@H]21 [Δ^9-THC, (6aR,10aR)-6,6,9-trimethyl-3-pentyl-6a,7,8,10a-tetrahydro-6H-benzo[c]chromen-1-ol] | increased | induced | upregulated | decreased | increased | significantly increased | significantly increased | induced endothelial dysfunction | – | decreased | elevated | Neither Δ^9-THC nor cotreatment with Δ^9-THC and genistein affected | significantly increased | significantly increased plaque size | increased adhesion | I kappa B (IκB) (hiPSC-ECs [1]): inhibited; TNFα concentration in the cell culture medium (hiPSC-ECs [1]): increased; hydrogen peroxide (H2O2) levels (hiPSC-ECs [1]; immunofluorescence staining): increased; duration of Δ9-THC-induced expression of proinflammatory cytokines and chemokines after the initial exposure (hiPSC-ECs [1]; Δ9-THC 48 hours, then wash-out, no genistein): 8 to 10 days; plasma concentration of Δ9-THC (C57BL/6J mice [6]; intraperitoneal injection, LC-MS): ~0.1 µg/mL; cytotoxicity (hiPSC-ECs [13]): induced cytotoxicity; antioxidant-related gene expression (human endothelial cells): reduced; expression of inflammation-related genes (human endothelial cells): induced; cytotoxicity [14]: without any adverse effect; cytotoxicity [15]: induced cytotoxicity; analgesia (hot plate 55° C.) (C57BL/6J mice [12]; Δ9-THC 20 mg/kg i.p.): analgesia; hypothermia (rectal body temperature) (C57BL/6J mice [12]; [16]): hypothermia; mobility (open field activity chamber) (C57BL/6J mice [12]; [16]): decreased mobility; sedation (bar test) (C57BL/6J mice [12]; [16]): sedation
